# Laboratory results: EP4759817A1, “HETEROARYL COMPOUND, PREPARATION METHOD THEREFOR, AND USE THEREOF IN MEDICINE” (Jiangsu Hengrui Pharmaceuticals Co., Ltd., priority 2023, dated 2025)
# Target: T1, Recombinant human PRMT5: MEP50 protein (Homo sapiens, UniProt O14744)
# T1 construct: purchased active motif 31521
# Test: Inhibitory activity against human PRMT5 enzymatic activity (HTRF quantification of SAH, +MTA)
# Assay type: biochemical
# Settings: +1 µM MTA; histone H4 peptide substrate (1-21), SAM; 37°C 120 min
# Procedure: • 1. Recombinant human PRMT5: MEP50 protein (active motif, 31521) • 2. EPIgeneous Methyltransferase kit (cisbio, 62SAHPEH) • 3. 96-well plate (Sangon Biotech, F610960-0010) • 4. 384-well white plate (Perkin Elmer, 6007290) • 5. 1 M Tris-HCl [pH 8.5] (Sangon Biotech, B548141) • 6. Histone H4 peptide substrates (1-21) (BPS bioscience, 52014) • 7. 5'-deoxy-5'-(methylthio)adenosine (Aladdin, D168979-25 mg) • 8. Tween-20 (Sangon Biotech, A100777-0500) • 9. DMSO (Sigma, D2650) • 10. Incubator (Shanghai Boxun Medical Biological Instrument Corp.) • 11. PHERAstar FS microplate reader (BMG Labtech)
# PRMT5 can induce the transfer of a methyl group from S-adenosylmethionine (SAM) to a histone H4 peptide substrate (1-21), generating S-adenosylhomocysteine (SAH). In this experiment, the amount of SAH produced in the reaction is quantified using a Homogeneous Time-Resolved Fluorescence (HTRF) method to evaluate the inhibitory activity of compounds against PRMT5 enzymatic activity.
# The sample diluent containing (or not containing) 1 µM 5 '-deoxy-5' - (methylthiyl) adenosine (MTA) was prepared using the EPIgeneous Diluent Buffer from the EPIgeneous Methyltransferase kit. With reference to the instructions, SAM and SAH standards were serially diluted and dispensed at 10 µL per well (in duplicate for each concentration). 2 µL of EPIgeneous Detection Buffer 1 was added to each well, and the plate was centrifuged, shaken to mix thoroughly, and placed at room temperature for 10 min. The SAH d2 Reagent was diluted 32-fold with EPIgeneous Detection Buffer 2, and 4 µL of the diluted SAH-d2 solution was added to each well. The plate was centrifuged and shaken for 2 min to mix thoroughly. The SAH Tb Cryptate Antibody was diluted 50-fold in EPIgeneous Detection Buffer 2. 4 µL of the diluted Tb Cryptate Antibody solution was added to each well, and the plate was centrifuged, shaken for 2 min to mix thoroughly, and left to stand at room temperature for 60 min, followed by reading on a PHERAstar FS microplate reader to obtain the 665/620 ratio. Plotting SAH concentration against the ratio to generate an x-y curve yields a corresponding calculation formula.
# Reaction buffer (1×): 50 mM Tris-HCl [pH 8.5], 1 mM DTT, 0.005% Tween-20.
# Compound preparation: a 20 mM solution of test compound in 100% DMSO was diluted in 100% DMSO to 1 mM as the highest concentration, and the solution at this concentration was then subjected to a 10-point, 3-fold serial dilution in 100% DMSO in a 96-well plate. Wells containing 100% DMSO served as the blank control. The above-described serially diluted compounds and the 100% DMSO were diluted 20-fold with the reaction buffer to prepare 5× compound solutions, which were mixed thoroughly for use.
# The PRMT5:MEP50 was diluted in the reaction buffer to a final concentration of 12.5 nM. Then, 4 µL of the 12.5 nM PRMT5:MEP50 solution was added to each well of a 384-well plate. Wells containing 4 µL of the reaction buffer served as the negative control wells. 2 µL of the 5× compound solution was added to each well. For the negative control wells (no enzyme, no compound) and the positive control wells (no compound), 2 µL of 5% DMSO was added. The plate was sealed with a membrane, centrifuged, shaken for 2 min to mix thoroughly, and placed at room temperature for 20 min.
# Preparation of substrate mixture solution: The substrate mixture solution containing 1.5 µM histone H4 peptide substrate (1-21) and 2.5 µM SAM, or 1.5 µM histone H4 peptide substrate (1-21), 2.5 µM SAM and 2.5 µM MTA was prepared in the reaction buffer.
# The reaction was initiated by adding 4 µL of the substrate mixture solution (-/+ MTA) to each well. The plate was sealed with a membrane, centrifuged, shaken for 2 min to mix thoroughly, and incubated at 37°C for 120 min in a constant temperature incubator.
# Detection: The detection was performed by using the EPIgeneous Methyltransferase kit. […]
# T1 sequence (O14744 whole entry): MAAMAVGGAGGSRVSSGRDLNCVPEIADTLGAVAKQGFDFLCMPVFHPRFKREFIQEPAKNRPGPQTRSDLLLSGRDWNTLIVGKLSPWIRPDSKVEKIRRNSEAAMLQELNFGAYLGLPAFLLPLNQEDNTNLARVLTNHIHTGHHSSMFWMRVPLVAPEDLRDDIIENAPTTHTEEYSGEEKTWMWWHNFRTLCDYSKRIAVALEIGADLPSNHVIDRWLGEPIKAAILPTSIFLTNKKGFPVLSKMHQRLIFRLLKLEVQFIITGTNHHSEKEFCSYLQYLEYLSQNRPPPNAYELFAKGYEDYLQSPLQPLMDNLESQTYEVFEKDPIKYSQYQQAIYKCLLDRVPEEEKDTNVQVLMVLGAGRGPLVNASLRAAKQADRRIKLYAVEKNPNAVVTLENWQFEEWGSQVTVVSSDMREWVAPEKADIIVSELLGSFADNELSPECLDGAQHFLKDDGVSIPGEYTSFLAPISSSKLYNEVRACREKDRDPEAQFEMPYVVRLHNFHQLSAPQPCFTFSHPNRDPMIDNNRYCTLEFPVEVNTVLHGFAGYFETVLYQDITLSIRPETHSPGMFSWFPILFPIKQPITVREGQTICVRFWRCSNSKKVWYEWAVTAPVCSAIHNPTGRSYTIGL
# T1 sequence (Q9BQA1 whole entry partner): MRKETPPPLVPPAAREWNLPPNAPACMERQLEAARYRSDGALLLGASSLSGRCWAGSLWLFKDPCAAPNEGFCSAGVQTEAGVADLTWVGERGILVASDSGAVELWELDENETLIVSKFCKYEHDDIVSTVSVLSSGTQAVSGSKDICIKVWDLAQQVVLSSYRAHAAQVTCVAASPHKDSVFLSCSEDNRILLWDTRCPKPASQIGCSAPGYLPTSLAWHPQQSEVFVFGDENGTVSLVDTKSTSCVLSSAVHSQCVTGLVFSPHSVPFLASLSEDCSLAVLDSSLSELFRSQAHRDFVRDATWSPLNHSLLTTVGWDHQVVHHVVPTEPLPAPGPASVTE
row,SMILES,IC50
1,"[2H]C([2H])([2H])n1ncc(-c2ccc3c(=O)[nH]nc(CN)c3c2)c1-c1c(F)cc2c(c1C#N)N1CCC[C@H]1CO2 (single isomer, unassigned) [Compound 8-p1]",5.19 nM
2,"[2H]C([2H])([2H])n1ncc(-c2ccc3c(=O)[nH]nc(CN)c3c2)c1-c1c(F)cc2c(c1C#N)O[C@H]1CC[C@H]1O2 (single isomer, unassigned) [Compound 2-p1]",5.23 nM
3,"Cn1ncc(-c2ccc3c(=O)[nH]nc(CN)c3c2)c1-c1c(F)cc2c(c1C#N)O[C@H]1CC[C@H]1O2 (atropisomer, axis not shown; (M)) [Compound 1-p1, (M)-(2aS,8aR)-5-(4-(4-(aminomethyl)-1-oxo-1,2-dihydrophthalazin-6-yl)-1-methyl-1H-pyrazol-5-yl)-6-fluoro-1,2,2a,8a-tetrahydrobenzo[b]cyclobuta[e][1,4]dioxine-4-carbonitrile]",4.91 nM
